The text below walks through data of patent US5703239A, “Indanylpiperidines as melatonergic agents” (Bristol-Myers Squibb Company, priority 1996, dated 1997).

A value given as a limit tells only on which side of the number the result lay.

Test system in the first assay: not given
Test: not given
Particulars: literature: Dubocovich et al, European Journal of Pharmacology, 182, (1990), pages 313-325; cited from earlier work.
As to `CC(=O)NCCc1c(Cc2ccccc2)[nH]c2ccccc12` [Luzindole], the antidepressant-like effects result is given as “exhibits antidepressant-like effects”.

The target of the next assay is T1, human ML1B receptor (Homo sapiens, UniProt P49286).
T1 construct: expressed in transfected cells; host or cells: NIH 3T3 cells (stably transfected; obtained from S. M. Reppert)
T1 sequence (P49286 1-362): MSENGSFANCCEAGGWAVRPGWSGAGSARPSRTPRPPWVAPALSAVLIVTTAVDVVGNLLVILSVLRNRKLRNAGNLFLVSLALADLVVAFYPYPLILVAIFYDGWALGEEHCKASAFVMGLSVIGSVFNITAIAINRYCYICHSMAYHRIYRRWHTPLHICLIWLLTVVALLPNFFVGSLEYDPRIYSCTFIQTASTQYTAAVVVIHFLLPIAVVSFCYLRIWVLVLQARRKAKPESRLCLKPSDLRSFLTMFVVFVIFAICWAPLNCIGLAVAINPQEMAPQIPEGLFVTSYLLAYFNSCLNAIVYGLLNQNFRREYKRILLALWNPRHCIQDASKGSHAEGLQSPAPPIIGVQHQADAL
As to the kind of experiment: Binding to human melatonergic receptors (2-[125I]-iodomelatonin, NIH 3T3 cell membranes, human ML1B receptor). Particulars: IC50 class; 200 pM 2-[125I]-iodomelatonin, 37° C., 1 hour, membranes of NIH 3T3 cells transfected with human ML1B receptor; read-out: Melatonin Binding. As to the method:
Measurement of Binding to Human Melatonergic Receptors The melatonergic binding affinities of various compounds of Formula I were determined by the method of Reppert, S. M., Weaver, D. R., and Ebisawa, R. (Neuron, Volume 13, 1177-1185, 1994). The assays were incubated at 37° C. for 1 hour, and the reaction was terminated by filtration. The filters were washed with wash buffer. […] The reagents, membrane and other techniques used in the melatonergic binding assays are more fully described below: […] Reagents: (a) 50 mM Tris buffer containing 12.5 mM MgCl2, and 2 mM EDTA, pH 7.4 at 37° C. (b) Wash buffer: 20 mM Tris base containing 2 mM MgCl2. pH 7.4 at room temperature. (c) Melatonin (10^-5 M final concentration). (d) 2-[^125 I]-Iodomelatonin, 200 pM final concentration Source: NEN 2. Membrane preparation: NIH 3T3 cells stably transfected with the human ML1B receptor were obtained from S. M. Reppert and maintained. Cells were pelleted when confluent. The supernatant was discarded and the pellets frozen. For preparing membrane homogenates, the pellets are thawed on ice and resuspended in TME buffer, Tris base, MgCl2, EDTA (pH 7.4 at 37° C.), supplemented with aprotinin, leupeptin, and […]. The cells were then homogenized and centrifuged. The resulting pellet was resuspended with a Dounce homogenizer in TME and frozen. At assay, a small aliquot was thawed on ice and resuspended in TME buffer.
Consider `CC(=O)NCCc1c(Cc2ccccc2)[nH]c2ccccc12` [Luzindole], for which the IC50 lay in the range of 0.1 to 0.25 µM.

With `CCNC(=O)N1CCC(C2CCc3ccc(OC(F)(F)F)cc32)CC1` (stereo not drawn) [N-Ethyl-4-[6-(trifluoromethoxy)-indan-1-yl]piperidine-1-carboxamide], the IC50 lay in the range of 0.01 to 0.1 µM.

Regarding `CCNC(=O)N1CCC(C2CCCc3ccc(OC)cc32)CC1` (stereo not drawn) [N-Ethyl-4-(7-methoxy-tetralin-1-yl)piperidine-1-carboxamide], the IC50 was 0.01 to 0.1 µM.

For `COc1ccc2c(c1)C(C1CCN(C(=O)C3CC3)CC1)CCC2` (stereo not drawn) [1-(Cyclopropylcarbonyl)-4-(7-methoxy-tetralin-1-yl)piperidine], the IC50 was less than 0.01 µM.

For the compound `CCNC(=O)N1CCC(C2CCc3ccc(CC)cc32)CC1` (stereo not drawn) [N-Ethyl-4-(6-ethyl-indan-1-yl)piperidine-1-carboxamide], the IC50 was less than 0.01 µM.

`COc1ccc2c(c1)C(C1CCN(C(=O)c3ccoc3)CC1)CC2` (stereo not drawn) [1-[(3-Furanyl)carbonyl]4-(6-methoxy-indan-1-yl)-piperidine]: the IC50 is less than 0.01 µM.

On to `COc1ccc2c(c1)C(C1CCN(C(=O)N(C)C)CC1)CC2` (single isomer, unassigned; (-)) [(-)-N,N-Dimethyl-4-(6-methoxy-indan-1-yl)piperidine-1-carboxamide], for which the IC50 was less than 0.01 µM.

As to `COc1ccc2c(c1)C(C1CCN(C=O)CC1)CC2` (stereo not drawn) [1-Formyl-4-(6-methoxy-indan-1-yl)piperidine], the IC50 is less than 0.01 µM.

With `CCNC(=O)N1CCC(C2CCc3ccc(OC)cc32)CC1` (single isomer, unassigned; (+)) [(+)N-Ethyl-4-(6-methoxy-indan-1-yl)piperidine-1-carboxamide], the IC50 was in the range of 0.01 to 0.1 µM.

Consider `CCC(C)(C)C(=O)N1CCC(C2CCc3ccc(OC)cc32)CC1` (stereo not drawn) [1-(2,2-Dimethyl-butanoyl)-4-(6-methoxy-indan-1-yl)piperidine], for which the IC50 is 0.01 to 0.1 µM.

As to `CCCCCCCOc1ccc2c(c1)C(C1CCN(C(=O)NCC)CC1)CC2` (stereo not drawn) [N-Ethyl-4-[6-(n-heptyloxy)-indan-1-yl]piperidine-1-carboxamide], the IC50 is less than 0.01 µM.

As to `CNC(=O)N1CCC(C2CCc3cc(F)c(OC)cc32)CC1` (stereo not drawn) [N-Methyl-4-(5-fluoro-6-methoxy-indan-1-yl)piperidine-1-carboxamide], the IC50 is less than 0.01 µM.

`COc1cc2c(cc1F)CCC2C1CCN(C(=O)C2CC2)CC1` (stereo not drawn) [1-(Cyclopropylcarbonyl)-4-(5-fluoro-6-methoxy-indan-1-yl)piperidine]: the IC50 is less than 0.01 µM.

Consider `CCCC(=O)N1CCC(C2CCc3cc(F)c(OC)cc32)CC1` (stereo not drawn) [1-Butanoyl-4-(5-fluoro-6-methoxy-indan-1-yl)piperidine], for which the IC50 is less than 0.01 µM.

Regarding `COc1ccc2c(c1)C(C1CCN(C(=O)C(C)C)CC1)CC2` (single isomer, unassigned; (+)) [(+)-4-(6-Methoxy-indan-1-yl)-1-(2-methylpropanoyl)piperidine], the IC50 was 0.01 to 0.1 µM.

Consider `O=C(C1CC1)N1CCC(C2CCc3ccc(OC(F)(F)F)cc32)CC1` (stereo not drawn) [1-(Cyclopropylcarbonyl)-4-[6-(trifluoromethoxy)-indan-1-yl]piperidine], for which the IC50 is 0.01 to 0.1 µM.

Regarding `COc1cc2c(cc1F)CCC2C1CCN(C(=O)C(C)C)CC1` (stereo not drawn) [4-(5-Fluoro-6-methoxy-indan-1-yl)1-(2-methylpropanoyl)piperidine], the IC50 is less than 0.01 µM.

`COc1ccc2c(c1)C(C1CCN(C(=O)CSC)CC1)CC2` (stereo not drawn) [4-(6-Methoxy-indan-1-yl)-1-(2-methylthioacetyl)piperidine]: the IC50 was less than 0.01 µM.

`O=C(C1CC1)N1CCC(C2CCc3ccc(F)cc32)CC1` (stereo not drawn) [1-(Cyclopropylcarbonyl)-4-(6-fluoro-indan-1-yl)piperidine]: the IC50 was less than 0.01 µM.

For the compound `CCc1ccc2c(c1)C(C1CCN(C(=O)C(C)C)CC1)CC2` (stereo not drawn) [4-(6-Ethyl-indan-1-yl)-1-(2-methylpropanoyl)piperidine], the IC50 was less than 0.01 µM.

As for `COc1ccc2c(c1)C(C1CCN(C(=O)c3cccn3C)CC1)CC2` (stereo not drawn) [4-(6-Methoxy-indan-1-yl)-1-[(1-methyl-pyrrol-2-yl)carbonyl]piperidine], the IC50 was less than 0.01 µM.

With `COc1ccc2c(c1)C(C1CCN(C(=O)c3cccs3)CC1)CC2` (stereo not drawn) [4-(6-Methoxy-indan-1-yl)-1-[(2-thienyl)carbonyl]piperidine], the IC50 was less than 0.01 µM.

On to `COc1ccc2c(c1)C(C1CCN(C(=O)c3csc(Cl)c3OC)CC1)CC2` (stereo not drawn) [1-[(2-Chloro-3-methoxythien-4-yl)carbonyl]-4-(6-methoxy-indan-1-yl)piperidine], for which the IC50 was in the range of 0.01 to 0.1 µM.

For the compound `COc1ccc2c(c1)C(C1CCN(C(=O)c3sccc3Cl)CC1)CC2` (stereo not drawn) [1-[(3-Chloro-thien-2-yl)carbonyl]-4-(6-methoxy-indan-1-yl)-piperidine], the IC50 was less than 0.01 µM.

As for `CCNC(=O)N1CCC(C2CCc3ccc(OC)cc32)CC1` (stereo not drawn) [N-Ethyl-4-(6-methoxy-indan-1-yl)piperidine-1-carboxamide], the IC50 was less than 0.01 µM.

`COCC(=O)N1CCC(C2CCc3ccc(OC)cc32)CC1` (single isomer, unassigned; (-)) [(-)-4-(6-Methoxy-indan-1-yl)-1-(2-methoxyacetyl)piperidine]: the IC50 is less than 0.01 µM.

Consider `COc1ccc2c(c1)C(C1CCN(C(=O)C(F)(F)F)CC1)CC2` (stereo not drawn) [4-(6-methoxy-indan-1-yl)-1-(trifluoroacetyl)piperidine], for which the IC50 was less than 0.01 µM.

As for `CNC(=O)N1CCC(C2CCc3ccc(OC)cc32)CC1` (single isomer, unassigned; (+)) [(+)-N-Methyl-4-(6-methoxy-indan-1-yl)piperidine-1-carboxamide], the IC50 lay in the range of 0.01 to 0.1 µM.

The next assay relates to human melatonin receptors.
Test: not given
Particulars: result in words, luzindole, background section; cited from earlier work.
As for `CC(=O)NCCc1c(Cc2ccccc2)[nH]c2ccccc12` [Luzindole], the “binds to human melatonin receptors” value is “binds to human melatonin receptors”.
